What is called EC50 is the concentration at which the effect is half-maximal.

These results are taken from US10981932B2, “Macrocyclic indole derivatives” (Bayer Aktiengesellschaft, priority 2016, dated 2021).

Like-named read-outs stand apart in the source and are kept apart here. Some results are limits rather than exact numbers.

Series [1] deals with SUDHL10. The series is described as follows: Induction of caspase-3/7 activity (Caspase-Glo 3/7), SUDHL10. The format is cell-based. Particulars: caspase-3/7 induction, SUDHL10 cells, 3 h treatment, median. Put shortly: (§1)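 Apoptosis induction measured as caspase-3/7 activity (Caspase-Glo 3/7) in DLBCL lines after 3 h treatment at 37 °C; EC50 derived relative to the reference compound's maximal induction, with C0 fixed at 1.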

The subject of series [2] is SUDHL5. Kind of series: Induction of cytotoxicity (CellTiter-Glo, 5 h), SUDHL5.
In series [3] the test system is SUDHL5. Kind of series: Anti-proliferative effect (CellTiter-Glo, 72 h), SUDHL5. Type of series: cell-based. Particulars: SUDHL5 cells, antiproliferation, 72 h incubation, median, read-out: Antiproli SUDHL5 [M] (median). Summed up:
(§2)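 Luminescence from CellTiter-Glo, read 10 min after reagent addition, reports viable cell content after 72 h of compound treatment at 37 °C. A reference plate read at day 0 gives the starting baseline.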

Series [4] has as its system SUDHL5. Kind of series: Induction of caspase-3/7 activity (Caspase-Glo 3/7), SUDHL5. The following applies: caspase-3/7 induction, SUDHL5 cells, 3 h treatment, median. Type of series: cell-based. Summed up:
as §1

In series [5] the test system is OPM2. Kind of series: Anti-proliferative effect (CellTiter-Glo, 72 h), OPM2. The format is cell-based. The following applies: OPM2 cells, median, read-out: IC50 antiproliferation assay OPM2 [M] (median). Summed up:
as §2
For orientation: Cellular ATP, detected with luciferase, serves as a proxy for viable cell number.

Series [6] deals with MCL-1 (Homo sapiens, UniProt Q07820). Kind of series: Protein-protein interaction assay MCL-1/Noxa BH3 peptide (MCL-1 assay), TR-FRET. Type of series: binding. The following applies: MBP-MCL-1 / Noxa BH3-derived peptide, median. Put shortly:
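Inhibition values were normalized between DMSO controls with all reagents and controls lacking MCL-1. The binding competition used 1 nM MBP-MCL-1 in pH 7 Tris buffer containing 50 mM KF and 100 mM NaCl, with a 10 min compound preincubation at 22 °C.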
In general terms: In TR-FRET formats the signal depends on donor and acceptor labels being close together.

Series [7] has as its system SUDHL10. Kind of series: Induction of cytotoxicity (CellTiter-Glo, 5 h), SUDHL10.
Series [8] has as its system SUDHL10. Kind of series: Anti-proliferative effect (CellTiter-Glo, 72 h), SUDHL10. The format is cell-based. The following applies: SUDHL10 cells, antiproliferation, 72 h incubation, median, read-out: Antiproli SUDHL10 [M] (median). Summed up: as §2
[9] abbreviates: read-out: Cytotox SUDHL5 [M] (median), SUDHL5 cells, cytotoxicity induction, CellTiter-Glo, 5 h incubation, median.
The mark [10] stands for this setting: read-out: Cytotox SUDHL10 [M] (median), SUDHL10 cells, cytotoxicity induction, CellTiter-Glo, 5 h incubation, median.
The mark [11] stands for this setting: Homo sapiens, SU-DHL-5, 5 h, read-out: Cytotox SUDHL5 [M] (median), SUDHL5 cells, cytotoxicity induction, CellTiter-Glo, 5 h incubation, median.
[12] abbreviates: Homo sapiens, SU-DHL10, 5 h, read-out: Cytotox SUDHL10 [M] (median), SUDHL10 cells, cytotoxicity induction, CellTiter-Glo, 5 h incubation, median.

Chain of MCL-1 (Q07820 whole entry): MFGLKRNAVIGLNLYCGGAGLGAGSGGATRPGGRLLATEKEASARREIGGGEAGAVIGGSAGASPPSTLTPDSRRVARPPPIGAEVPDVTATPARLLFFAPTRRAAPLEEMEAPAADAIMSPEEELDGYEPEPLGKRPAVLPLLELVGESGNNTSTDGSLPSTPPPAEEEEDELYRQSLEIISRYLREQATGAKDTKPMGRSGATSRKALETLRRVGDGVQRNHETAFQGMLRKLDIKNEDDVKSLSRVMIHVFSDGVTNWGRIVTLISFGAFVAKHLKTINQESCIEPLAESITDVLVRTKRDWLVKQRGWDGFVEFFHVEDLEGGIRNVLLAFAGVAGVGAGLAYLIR

On to `Cn1nc(COc2ccccc2)c2c1COCC=CCn1c(C(=O)O)c(CCCOc3cccc4ccccc34)c3cccc-2c31` (single isomer, unassigned) [Example 1-78, (E/Z)-1-methyl-7-[3-(naphthalen-1-yloxy)propyl]-3-(phenoxymethyl)-1,10,13,15-tetrahydropyrazolo[4′,3′:9,10][1,6]oxazacycloundecino[8,7,6-hi]indole-8-carboxylic Acid], for which the EC50 in series [1] and in series [4] was greater than 33 µM in each case. Moreover, the IC50 in series [2] (setting [9]) is greater than 3.3e-05 M; in series [3], 1.79e-05 M; in series [5], 3.06e-05 M; in series [6], 0.905 µM; in series [7] (setting [10]) it was greater than 3.3e-05 M; in series [8], 1.08e-05 M.

Consider `CN1CCCn2c(C(=O)O)c(CCCOc3cccc4ccccc34)c3cccc(c32)-c2c(COc3ccccc3)nn(C)c2C1` (single isomer, unassigned) [Example 1-82, 7,9-dimethyl-1-[3-(naphthalen-1-yloxy)propyl]-11-(phenoxymethyl)-4,5,6,7,8,9-hexahydropyrazolo[3′,4′:7,8][1,5]diazecino[9,10,1-hi]indole-2-carboxylic Acid], for which the EC50 was greater than 33 µM in series [1] (Homo sapiens, SU-DHL10, 3 h) and greater than 33 µM in series [4] (Homo sapiens, SU-DHL-5, 3 h). For the same molecule, the IC50 in series [2] (setting [11]) is greater than 3.3e-05 M; in series [3] (Homo sapiens, SU-DHL-5, 72 h), 2.77e-05 M; in series [5] (Homo sapiens, OPM-2, 72 h) it was greater than 3.3e-05 M; in series [6] it was 0.113 µM; in series [7] (setting [12]), greater than 3.3e-05 M; in series [8] (Homo sapiens, SU-DHL10, 72 h) it was 1.42e-05 M.

`CN1CCCn2c(C(=O)O)c(CCCOc3cccc4ccccc34)c3cccc(c32)-c2c(COc3ccccc3)nn(C)c2C1` (single isomer, unassigned) [Example 1-83, 7,9-dimethyl-1-[3-(naphthalen-1-yloxy)propyl]-11-(phenoxymethyl)-4,5,6,7,8,9-hexahydropyrazolo[3′,4′:7,8][1,5]diazecino[9,10,1-hi]indole-2-carboxylic Acid]: the EC50 in series [1] and in series [4] was greater than 33 µM in each case. The IC50 in series [2] (setting [9]) is greater than 3.3e-05 M; in series [3], 2.06e-05 M; in series [5], greater than 3.3e-05 M; in series [6] it was 0.24 µM; in series [7] (setting [10]), greater than 3.3e-05 M; in series [8], 1.12e-05 M.

`Cc1cc(OCCCc2c(C(=O)O)n3c4c(cccc24)-c2c(COc4ccccc4)nn(C)c2CN(C)CCC3)cc(C)c1Cl` (single isomer, unassigned) [Example 1-85, 1-[3-(4-chloro-3,5-dimethylphenoxy)propyl]-7,9-dimethyl-11-(phenoxymethyl)-4,5,6,7,8,9-hexahydropyrazolo[3′,4′:7,8][1,5]diazecino[9,10,1-hi]indole-2-carboxylic Acid]: the EC50 is greater than 33 µM in series [1] (Homo sapiens, SU-DHL10, 3 h) and greater than 33 µM in series [4] (Homo sapiens, SU-DHL-5, 3 h). Further, the IC50 in series [2] (setting [11]) was greater than 3.3e-05 M; in series [3] (Homo sapiens, SU-DHL-5, 72 h), 2.5e-05 M; in series [5] (Homo sapiens, OPM-2, 72 h) it was greater than 3.3e-05 M; in series [6], 0.262 µM; in series [7] (setting [12]), greater than 3.3e-05 M; in series [8] (Homo sapiens, SU-DHL10, 72 h) it was 1.03e-05 M.

Turning to `Cc1cc(OCCCc2c(C(=O)O)n3c4c(cccc24)-c2c(COc4ccccc4)nn(C)c2CN(C)CCC3)cc(C)c1Cl` (single isomer, unassigned) [Example 1-86, 1-[3-(4-chloro-3,5-dimethylphenoxy)propyl]-7,9-dimethyl-1-(phenoxymethyl)-4,5,6,7,8,9-hexahydropyrazolo[3′,4′:7,8][1,5]diazecino[9,10,1-hi]indole-2-carboxylic Acid], the EC50 in series [1] and in series [4] was greater than 33 µM throughout. In addition, the IC50 is greater than 3.3e-05 M in series [2] (setting [9]); 1.96e-05 M in series [3]; 2.43e-05 M in series [5]; 0.278 µM in series [6]; greater than 3.3e-05 M in series [7] (setting [10]); 9.45e-06 M in series [8].
